These results are taken from patent US9434711B2 (Janssen Pharmaceutica, NV, priority 2007, dated 2016).

Structures are written as SMILES. Read-outs that look alike come from different tables or passages of the source.

For orientation: IC50 means the concentration that inhibits the measured activity by half.

One test has as its system Sprague-Dawley rats. The test can be described thus: CFA-Induced Paw Radiant Heat Hypersensitivity. To be noted: dose 10 p.o., HPbCD, treatment time 100 min, Na salt form. Type of test: in vivo, rat. As for the experimental part:
Intraplantar injection of complete Freund's adjuvant (CFA) in rodents results in a long-lasting inflammatory reaction, characterized by a pronounced hypersensitivity to both thermal and mechanical stimuli. This hypersensitivity peaks between 24-72 hours following injection and can last for several weeks. To assess whether test compounds of the formula (I) reverse established hypersensitivity, a 100 μL intraplantar injection of CFA (suspended in a 1:1 emulsion of saline and heat-killed Mycobacterium tuberculosis in mineral oil) can be injected into a single hind paw of Sprague-Dawley rats (typically males ranging from 150-350 g). This paradigm also may be conducted with a multiple dosing or a prophylactic dosing regime designed to alter the course of hyperalgesia development. This test predicts the analgesic, anti-allodynic and antihyperalgesic effect of numerous effective clinical agents, including acetaminophen, NSAIDS such as aspirin and ibuprofen, and opioids, such as morphine.
Each rat is placed in a test chamber on a warm glass surface and allowed to acclimate for approximately 10 minutes. A radiant thermal stimulus (beam of light) is then focused through the glass onto the plantar surface of each hind paw in turn. The thermal stimulus is automatically shut off by a photoelectric relay when the paw is moved or when the cut-off time is reached (20 seconds for radiant heat at […]). An initial (baseline) response latency to the thermal stimulus is recorded for each animal prior to the injection of CFA. Twenty-four hours following intraplantar CFA injection, the response latency of the animal to the thermal stimulus is then re-evaluated and compared to the animal's baseline response time. […] Immediately following the post-CFA latency assessment, test compound or vehicle (usually Solutol, hydroxypropyl methylcellulose, hydroxypropyl beta-cyclodextrin or PEG-400) is administered i.p. or p.o. to rats. Post-compound treatment withdrawal latencies are assessed at fixed time intervals, typically 30, 60 and 120 minutes. The percent reversal (% R) of hypersensitivity is calculated according to the following formula: % Reversal=(Treatment Response-CFA Response)/(Baseline Response-CFA Response)×100.

The target of another test is canine TRPM8 (Canis lupus familiaris, UniProt Q1A7N1). The test can be described thus: In Vitro Canine TRPM8 Functional Assay (Ca2+ fluorescence, icilin activation). It counts as cell-based. Put shortly:
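HEK293 cells stably expressing canine TRPM8 were loaded with Calcium 3 dye (35 min at 37 °C, then 25 min at room temperature). Compound was added and Ca2+ fluorescence was read for 5 min before icilin at a concentration giving about 80% maximal response. EC50/IC50 came from eight-point dose-response curves, quadruplicate wells.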

In test [1] the test system is Male Sprague Dawley rats. The test can be described thus: Inhibition of Icilin-Induced "Wet-Dog" Shakes in Rats. It counts as in vivo, rat. The note with it: Rattus norvegicus, po, 2 h, Water, 120 min pre-icilin, Na salt form. As for the experimental part: Male Sprague Dawley rats (220-450 g, Charles River Labs, n=6-9/treatment) were used to evaluate the ability of selected compounds of the formula (I) to block icilin-induced “wet-dog” shakes (WDS). Compounds of the formula (I) were administered in an appropriate vehicle, such as hydroxypropyl-β-cyclodextrin (HPβCD), methocellulose, 10% Solutol, or H2O, or the like, by the appropriate route, i.p. or p.o., 30-120 minutes before icilin. Icilin was administered in PEG-400 or 10% solutol/H2O, at 1.0 or 3.0 mg/kg, i.p. and spontaneous “wet-dog” shakes were counted 10-20 minutes post-icilin. Results are presented as a percent inhibition of shakes, which was calculated as [1-(test compound WDS count/vehicle WDS count)]×100.

The subject of test [2] is Male Sprague Dawley rats. The test can be described thus: Chronic Constriction Injury (CCI)-Induced Model of Neuropathic Pain, Acetone-Induced Hypersensitivity. It counts as in vivo, rat. To be noted: Rattus norvegicus, po, Water, Na salt form; for inhibition in vivo at 30 mg/kg: 30 mg/kg p.o.
For test [3], the system named is Male Sprague Dawley rats. The test can be described thus: Rightward Shift of Icilin Dose Effect Curve in Rats. Type of test: in vivo. To be noted: Rattus norvegicus, ip; icilin i.p., wet-dog shakes, no pretreatment; read-out: Icilin ED50, mg/kg, i.p., no pretreatment. Here is the method: Male Sprague Dawley rats (200-400 g, Charles River Labs, n=6-9/treatment) were administered icilin in a suitable vehicle (e.g. PEG-400, 10% Solutol) at 0.1-30 mg/kg, i.p. Spontaneous “wet-dog” shakes were counted 10-20 minutes post-icilin in order to generate a icilin dose-effect curve. A compound of the present invention was administered orally in hydroxypropyl-β-cyclodextrin 60 minutes before icilin challenge to assess the compound's ability to inhibit spontaneous “wet-dog” shakes (WDS) produced by a range of icilin doses. The ED50 of the icilin dose-effect curve generated in the presence of TRPM8 antagonist may be compared to that generated in the presence of vehicle to determine the magnitude of rightward shift as shown below in Table 7.

Chain of canine TRPM8 (Q1A7N1 1-1104): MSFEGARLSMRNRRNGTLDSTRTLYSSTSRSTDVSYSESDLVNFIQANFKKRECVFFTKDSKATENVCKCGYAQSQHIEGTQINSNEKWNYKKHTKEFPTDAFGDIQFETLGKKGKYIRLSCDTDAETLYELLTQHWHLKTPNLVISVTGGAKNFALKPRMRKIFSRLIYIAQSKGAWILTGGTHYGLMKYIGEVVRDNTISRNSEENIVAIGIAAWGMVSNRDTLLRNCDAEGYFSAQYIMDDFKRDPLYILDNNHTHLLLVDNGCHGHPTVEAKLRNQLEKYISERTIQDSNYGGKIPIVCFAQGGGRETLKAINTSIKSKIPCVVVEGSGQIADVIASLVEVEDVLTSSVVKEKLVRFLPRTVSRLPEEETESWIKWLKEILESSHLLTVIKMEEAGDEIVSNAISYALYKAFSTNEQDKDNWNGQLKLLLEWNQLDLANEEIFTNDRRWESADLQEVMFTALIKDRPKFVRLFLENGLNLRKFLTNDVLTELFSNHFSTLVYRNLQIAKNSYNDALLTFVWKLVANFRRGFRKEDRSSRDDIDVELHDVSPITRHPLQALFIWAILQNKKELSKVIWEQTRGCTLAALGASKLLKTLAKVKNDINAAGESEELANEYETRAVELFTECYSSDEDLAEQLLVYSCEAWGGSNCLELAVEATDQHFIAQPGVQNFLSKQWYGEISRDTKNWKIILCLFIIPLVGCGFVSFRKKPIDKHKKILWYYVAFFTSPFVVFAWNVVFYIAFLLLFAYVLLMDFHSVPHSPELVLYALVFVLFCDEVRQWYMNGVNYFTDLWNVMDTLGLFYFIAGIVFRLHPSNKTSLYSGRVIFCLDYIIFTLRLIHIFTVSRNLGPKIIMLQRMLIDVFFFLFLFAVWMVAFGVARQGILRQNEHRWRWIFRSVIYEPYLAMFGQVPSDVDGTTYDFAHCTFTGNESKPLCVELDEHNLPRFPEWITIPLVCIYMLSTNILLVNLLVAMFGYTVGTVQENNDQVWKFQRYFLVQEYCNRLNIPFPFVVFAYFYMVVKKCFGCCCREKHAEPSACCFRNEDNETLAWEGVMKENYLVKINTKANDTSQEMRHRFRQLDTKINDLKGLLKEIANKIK

In the case of `CC(C)(O)c1c(N(Cc2ccc(F)c(C(F)(F)F)c2)S(=O)(=O)c2ccc(C(=O)O)cc2)sc2ccccc12` [Compound 361, N-(4-Fluoro-3-trifluoromethylbenzyl)-N-(3-(1-hydroxy-1-methyl-ethyl)-benzo[b]thiophen-2-yl)-4-carboxy-benzenesulfonamide], in the test with Sprague-Dawley rats, the “Percent Reversal” value came out at 28%. Moreover, the IC50 at canine TRPM8 (HEK293 cells stably expressing canine TRPM8, icilin activation, eight-point dose-response, read-out: IC50) came to 0.8 nM. The inhibition at 0.2 µM on canine TRPM8 (compound at 0.2 μM, canine TRPM8, icilin activation, read-out: % Inh @ 0.2) was 93%. Besides, the ED50 stood at 4.5 mg/kg with Male Sprague Dawley rats [1] and 13 mg/kg with Male Sprague Dawley rats [2] (pretreatment 2 hr). Further, the inhibition in vivo at 3 mg/kg with Male Sprague Dawley rats [2] (2 h, 3 mg/kg p.o., pretreatment 2 hr, read-out: Percent Inhibition) is 9%. Moreover, in the test with Male Sprague Dawley rats [2] (2 h, 10 mg/kg p.o., pretreatment 2 hr, read-out: Percent Inhibition), the inhibition in vivo at 10 mg/kg turned out to be 17%. The inhibition in vivo at 30 mg/kg with Male Sprague Dawley rats [2] (2 h, pretreatment 2 hr, read-out: Percent Inhibition) was 91%; in the test with Male Sprague Dawley rats [2] (4 h, pretreatment 4 hr, read-out: Percent Inhibition), 74%.

In the case of `O=C1NC(c2cccc([N+](=O)[O-])c2)=CCN1c1ccccc1O` [Icilin, reference compound], the ED50 in the test with Male Sprague Dawley rats [3] is 0.75 mg/kg.
